Laboratory results taken from patent publication US20100189786A1, “CRYSTALLINE TOLTERODINE TARTARATE AND A PHARMACEUTICAL COMPOSITION CONTAINING THE SAME” (priority 2006, published 2010).

Test: Measurement of particle size by the microscopic method
Type: physicochemical
Conditions: no treatment; for weight of the material that would pass through the 250 μm sieve: share by weight; for particles smaller than 30 μm: share of all particles
Description: The drawings represent results of measurement of the particle size of the product prepared according to Example 2 by a microscopic method.
For all the batches, measurement of particle size was performed without any treatment using the microscopic method.

SMILES	maximum crystal size [μm]	maximum crystal size (listed as batch I) [μm]	weight of the material that would pass through the 250 μm sieve [%]	weight of the material that would pass through the 250 μm sieve (listed as batch I) [%]	particles smaller than 30 μm [%]	particles smaller than 30 μm (listed as batch I) [%]	maximum crystal size (listed as batch II) [μm]	weight of the material that would pass through the 250 μm sieve (listed as batch II) [%]	particles smaller than 30 μm (listed as batch II) [%]	maximum crystal size (listed as batch III) [μm]	weight of the material that would pass through the 250 μm sieve (listed as batch III) [%]	particles smaller than 30 μm (listed as batch III) [%]
Cc1ccc(O)c([C@H](CCN(C(C)C)C(C)C)c2ccccc2)c1.O=C(O)C(O)C(O)C(=O)O [Batch I, R-tolterodine tartarate]	623	623	40.9	40.9	91.95	91.95	–	–	–	–	–	–
Cc1ccc(O)c([C@H](CCN(C(C)C)C(C)C)c2ccccc2)c1.O=C(O)C(O)C(O)C(=O)O [Batch II, R-tolterodine tartarate]	439	–	47.2	–	94.73	–	439	47.2	94.73	–	–	–
Cc1ccc(O)c([C@H](CCN(C(C)C)C(C)C)c2ccccc2)c1.O=C(O)C(O)C(O)C(=O)O [Batch III, R-tolterodine tartarate]	702	–	41.3	–	89.29	–	–	–	–	702	41.3	89.29
